{"source": "patent EP3094315B1", "about": "“PHARMACEUTICAL COMPOSITION COMPRISING ARIPIPRAZOLE OR SALT THEREOF” (Pharmathen S.A., priority 2014, dated 2015)", "origin": "cited, not measured here", "note": "Read-outs that look alike come from different tables or passages of the source.", "data": [{"compound": "O=C1CCc2ccc(OCCCCN3CCN(c4cccc(Cl)c4Cl)CC3)cc2N1", "note": "[Aripiprazole, 7-{4-[4-(2,3-dichlorophenyl)piperazin-1-yl]butoxy}-3,4-dihydroquinolin-2(1H)-one]", "values": [{"measurement": "solubility", "setting": "in N,N-dimethyl formamide", "value": "freely soluble"}, {"measurement": "solubility", "setting": "in dichloromethane", "value": "freely soluble"}, {"measurement": "solubility", "setting": "in water", "value": "practically insoluble"}]}]}
